Source: patent publication US8124610B2, “Sodium channel inhibitors” (Icagen Inc., priority 2007, dated 2012)

Target: T1, hSCN9A (Homo sapiens, UniProt Q15858)
T1 construct: expressed in transfected cells
Assay: Whole-cell patch-clamp electrophysiology (conventional or PatchXpress), HEK cells expressing hSCN9A, estimated IC-50
Assay type: cell-based
Conditions: estimated IC-50, HEK cells expressing hSCN9A; class symbols or bounds; read-out: SCN9A EIC-50
Method: Human Embryonic Kidney (HEK) cells were transfected with hSCN3A or hSCN9A constructs using lipofectamine reagent (Invitrogen), using standard techniques. Cells stably expressing the hSCN3A or hSCN9A constructs were identified by their resistance to G-418 (400 μg/ml). Clones were screened for expression using the whole-cell voltage-clamp technique. HEK cells stably transfected with hSCN3A or hSCN9A were maintained in DMEM medium supplemented with 10% heat-inactivated fetal bovine serum and 400 μg/ml G418 sulfate in an incubator at 37° C. with a humidified atmosphere of 10% CO2. For HTS, cells were harvested from flasks by trypsinization and replated in an appropriate multi-well plate (typically 96 or 384 wells/plate) such that confluence would be achieved within 24 hours of plating. For electrophysiological studies, cells were removed from the culture flask by brief trypsinization and replated at low density onto glass cover slips. Cells were typically used for electrophysiological experiments within 24 to 72 h after plating. Cover slips containing HEK cells expressing hSCN3A or hSCN9A were placed in a bath on the stage of an inverted microscope and perfused (approximately 1 ml/min) with extracellular solution of the following composition: 138 mM NaCl, 2 mM CaCl2, 5.4 mM KCl, 1 mM MgCl2, 10 mM glucose, and 10 mM HEPES, pH 7.4, with NaOH. […] All recordings were made at room temperature (22-24° C.) using AXOPATCH 200B amplifiers and PCLAMP software (Axon Instruments, Burlingame, Calif.) or PatchXpress 7000 hardware and associated software (Axon Instruments, Burlingame, Calif.). hSCN3A or hSCN9A currents in HEK cells were measured using the whole-cell configuration of the patch-clamp technique (Hamill et al., 1981). […] As a result, voltage errors were negligible and no correction was applied. Current records were acquired at 20 to 50 KHz and filtered at 5 to 10 KHz. HEK cells stably transfected with hSCN3A or hSCN9A were viewed under Hoffman contrast optics and placed in front of an array of flow pipes emitting either control or compound-containing extracellular solutions. All compounds were dissolved in dimethyl sulfoxide to make 10 mM stock solutions, which were then diluted into extracellular solution to attain the final concentrations desired. […] The voltage-dependence of inactivation was determined by applying a series of depolarizing prepulses (8 sec long in 10 mV increments) from a negative holding potential. The voltage was then immediately stepped to 0 mV to assess the magnitude of the sodium current. Currents elicited at 0 mV were plotted as a function of prepulse potential to allow estimation of the voltage midpoint of inactivation (V1/2). Cells were then voltage clamped at the empirically determined V1/2. Compounds were tested for their ability to inhibit hSCN3A or hSCN9A sodium channels by activating the channel with a 20 msec voltage step to 0 mV following an 8 second conditioning prepulse to the empirically determined V1-2 (Table B). Compound effect (% inhibition) was determined by difference in current amplitude before and after application of test compounds. […] In some cases electrophysiological assays were conducted with PatchXpress 7000 hardware and associated software (Molecular Devices Corp) (Table B). All assay buffers and solutions were identical to those used in conventional whole-cell voltage clamp experiments described above. hSCN3A or hSCN9A containing cells were grown as above to 50%-80% confluency and harvested by trypsinization. Trypsinized cells were washed and resuspended in extracellular buffer at a concentration of 1×10^6 cells/ml. The onboard liquid handling facility of the PatchXpress was used for dispensing cells and application of test compounds. Determination of the voltage midpoint of inactivation was as described for conventional whole-cell recordings. Cells were then voltage-clamped to the empirically determined V1/2 and current was activated by a 20 msec voltage step to 0 mV.

T1 sequence (Q15858 whole entry): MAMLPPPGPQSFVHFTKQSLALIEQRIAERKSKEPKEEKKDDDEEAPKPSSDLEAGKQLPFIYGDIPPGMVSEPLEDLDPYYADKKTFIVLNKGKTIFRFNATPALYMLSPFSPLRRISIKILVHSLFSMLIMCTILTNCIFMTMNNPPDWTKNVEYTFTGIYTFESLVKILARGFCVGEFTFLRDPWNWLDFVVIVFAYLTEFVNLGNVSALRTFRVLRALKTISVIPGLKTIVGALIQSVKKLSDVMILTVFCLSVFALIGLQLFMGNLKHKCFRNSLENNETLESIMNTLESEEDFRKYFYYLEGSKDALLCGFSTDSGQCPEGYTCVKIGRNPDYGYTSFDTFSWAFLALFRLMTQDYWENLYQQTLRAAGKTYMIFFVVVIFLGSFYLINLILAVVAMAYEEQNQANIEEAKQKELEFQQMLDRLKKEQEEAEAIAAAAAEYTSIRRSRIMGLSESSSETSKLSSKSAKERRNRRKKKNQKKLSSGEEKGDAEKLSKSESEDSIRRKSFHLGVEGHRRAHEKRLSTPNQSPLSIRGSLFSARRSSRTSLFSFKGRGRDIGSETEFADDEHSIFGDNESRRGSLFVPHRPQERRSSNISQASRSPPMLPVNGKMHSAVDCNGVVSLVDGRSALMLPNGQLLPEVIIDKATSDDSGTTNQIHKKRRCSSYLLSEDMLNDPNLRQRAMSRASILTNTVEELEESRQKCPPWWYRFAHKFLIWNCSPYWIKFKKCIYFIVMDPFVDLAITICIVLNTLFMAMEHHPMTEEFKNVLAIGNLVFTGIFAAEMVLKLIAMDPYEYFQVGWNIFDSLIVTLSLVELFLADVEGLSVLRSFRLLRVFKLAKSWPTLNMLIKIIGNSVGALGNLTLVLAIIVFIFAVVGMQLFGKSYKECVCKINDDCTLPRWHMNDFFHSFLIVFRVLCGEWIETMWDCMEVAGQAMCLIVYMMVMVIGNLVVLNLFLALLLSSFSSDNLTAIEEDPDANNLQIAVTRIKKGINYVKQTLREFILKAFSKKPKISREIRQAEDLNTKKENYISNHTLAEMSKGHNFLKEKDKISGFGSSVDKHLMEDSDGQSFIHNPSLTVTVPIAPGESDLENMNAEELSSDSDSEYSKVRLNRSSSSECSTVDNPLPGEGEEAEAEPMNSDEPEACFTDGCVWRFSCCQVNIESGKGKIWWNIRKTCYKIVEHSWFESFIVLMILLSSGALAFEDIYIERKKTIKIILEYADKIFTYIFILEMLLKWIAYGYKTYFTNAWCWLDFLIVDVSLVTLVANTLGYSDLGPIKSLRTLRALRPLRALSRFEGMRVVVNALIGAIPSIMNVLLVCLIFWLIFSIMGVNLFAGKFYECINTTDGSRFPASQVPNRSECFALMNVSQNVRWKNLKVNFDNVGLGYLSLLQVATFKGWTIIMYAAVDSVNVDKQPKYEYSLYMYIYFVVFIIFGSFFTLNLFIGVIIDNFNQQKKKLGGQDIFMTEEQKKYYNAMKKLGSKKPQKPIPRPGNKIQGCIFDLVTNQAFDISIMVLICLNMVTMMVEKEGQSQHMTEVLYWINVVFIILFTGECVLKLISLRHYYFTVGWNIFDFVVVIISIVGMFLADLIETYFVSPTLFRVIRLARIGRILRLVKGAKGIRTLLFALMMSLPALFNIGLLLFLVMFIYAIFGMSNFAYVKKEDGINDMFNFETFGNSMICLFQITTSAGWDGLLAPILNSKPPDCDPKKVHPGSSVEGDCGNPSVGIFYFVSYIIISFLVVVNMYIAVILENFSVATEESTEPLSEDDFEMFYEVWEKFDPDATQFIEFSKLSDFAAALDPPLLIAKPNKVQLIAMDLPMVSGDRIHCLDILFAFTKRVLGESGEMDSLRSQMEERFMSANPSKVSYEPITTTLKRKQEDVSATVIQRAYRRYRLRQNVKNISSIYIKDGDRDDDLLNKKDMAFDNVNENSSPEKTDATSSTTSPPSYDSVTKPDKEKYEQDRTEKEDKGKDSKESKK

| IC50 | Compound |
| --- | --- |
| < 2000 nM | Cn1nc(Cc2ccc(Cl)c(F)c2)cc1Nc1ccc(S(=O)(=O)Nc2nccs2)c(F)c1 [Compound 210, 4-(3-(4-chloro-3-fluorobenzyl)-1-methyl-1H-pyrazol-5-ylamino)-2-fluoro-N-(thiazol-2-yl)benzenesulfonamide] |
| < 2000 nM | Cn1nc(Cc2ccc(Cl)cc2)cc1Nc1ccc(S(=O)(=O)Nc2nccs2)c(F)c1 [Compound 141, 4-(3-(4-chlorobenzyl)-1-methyl-1H-pyrazol-5-ylamino)-2-fluoro-N-(thiazol-2-yl)benzenesulfonamide] |
| < 2000 nM | O=S(=O)(Nc1nccs1)c1ccc(Nc2ncn(Cc3ccc(F)cc3Cl)n2)c(F)c1 [Compound 207, 4-(1-(2-chloro-4-fluorobenzyl)-1H-1,2,4-triazol-3-ylamino)-3-fluoro-N-(thiazol-2-yl)benzenesulfonamide] |
| < 2000 nM | COc1ccccc1-n1nc(C)cc1Nc1ccc(S(=O)(=O)Nc2nccs2)cc1F [Compound 215, 3-fluoro-4-(1-(2-methoxyphenyl)-3-methyl-1H-pyrazol-5-ylamino)-N-(thiazol-2-yl)benzenesulfonamide] |
| < 2000 nM | Cc1cc(Nc2ccc(S(=O)(=O)Nc3nccs3)c(F)c2)n(-c2cccc(F)c2)n1 [Compound 177, 2-fluoro-4-(1-(3-fluorophenyl)-3-methyl-1H-pyrazol-5-ylamino)-N-(thiazol-2-yl)benzenesulfonamide] |
| < 2000 nM | Cc1cc(Nc2ccc(S(=O)(=O)Nc3nccs3)c(F)c2)n(-c2ccc(Cl)cc2)n1 [Compound 140, 4-(1-(4-chlorophenyl)-3-methyl-1H-pyrazol-5-ylamino)-2-fluoro-N-(thiazol-2-yl)benzenesulfonamide] |
| 2000 to 10000 nM | Cn1nc(Cc2ccc(Cl)cc2)c(C#N)c1Nc1ccc(S(=O)(=O)Nc2nccs2)cc1 [Compound 119, 4-(3-(4-chlorobenzyl)-4-cyano-1-methyl-1H-pyrazol-5-ylamino)-N-(thiazol-2-yl)benzenesulfonamide] |

Second part, the compound before the results:

| Compound | IC50 |
| --- | --- |
| Cn1nc(Cc2ccc(Cl)c(F)c2)cc1Nc1ccc(S(=O)(=O)Nc2nccs2)cc1 [Compound 196, 4-(3-(4-chloro-3-fluorobenzyl)-1-methyl-1H-pyrazol-5-ylamino)-N-(thiazol-2-yl)benzenesulfonamide] | < 2000 nM |
| O=S(=O)(Nc1nccs1)c1ccc(Nc2ccn(Cc3ccc(Cl)cc3F)n2)cc1F [Compound 197, 4-(1-(4-chloro-2-fluorobenzyl)-1H-pyrazol-3-ylamino)-2-fluoro-N-(thiazol-2-yl)benzenesulfonamide] | < 2000 nM |
| O=S(=O)(Nc1nc(C(F)(F)F)cs1)c1ccc(Nc2nc(Cc3ccc(Cl)cc3)cs2)cc1 [Compound 257, 4-(4-(4-chlorobenzyl)thiazol-2-ylamino)-N-(4-(trifluoromethyl)thiazol-2-yl)benzenesulfonamide] | 2000 to 10000 nM |
| Cc1cc(Nc2ccc(S(=O)(=O)Nc3nccs3)cc2)n(-c2ccc(Cl)cc2)n1 [Compound 137, 4-(1-(4-chlorophenyl)-3-methyl-1H-pyrazol-5-ylamino)-N-(thiazol-2-yl)benzenesulfonamide] | 2000 to 10000 nM |
| Cc1cccc(NS(=O)(=O)c2ccc(Nc3ccn(Cc4ccc(Cl)cc4)n3)cc2F)n1 [Compound 259, 4-(1-(4-chlorobenzyl)-1H-pyrazol-3-ylamino)-2-fluoro-N-(6-methylpyridin-2-yl)benzenesulfonamide] | > 3000 nM |
| O=S(=O)(Nc1nccs1)c1ccc(Nc2ccn(Cc3ccccc3)n2)cc1F [Compound 211, 4-(1-benzyl-1H-pyrazol-3-ylamino)-2-fluoro-N-(thiazol-2-yl)benzenesulfonamide] | 2000 to 10000 nM |
| Cc1ccc(Cc2cc(Nc3ccc(S(=O)(=O)Nc4nccs4)cc3F)n(C(C)(C)C)n2)cc1 [Compound 158, 4-(1-tert-butyl-3-(4-methylbenzyl)-1H-pyrazol-5-ylamino)-3-fluoro-N-(thiazol-2-yl)benzenesulfonamide] | < 2000 nM |
